Assays:
[1] = Antiproliferative activity against human 1205Lu cells; format: functional, cell-based
HCT-116 [2] = experiment: Antiproliferative activity against human HCT-116 cells; format: functional, cell-based
[3] = Cytotoxicity against human HFF cells; format: toxicity, cell-based
[4] = Potency index, ratio of artesunate IC50 to test compound IC50 for antiproliferative activity against human 1205Lu cells assessed as inhibition of cell growth; format: functional
HeLa [5] = experiment: Antiproliferative activity against human HeLa cells; format: functional, cell-based
HCT-116 [6] = experiment: Potency index, ratio of artesunate IC50 to test compound IC50 for antiproliferative activity against human HCT-116 cells assessed as inhibition of cell growth; format: functional
HeLa [7] = experiment: Potency index, ratio of artesunate IC50 to test compound IC50 for antiproliferative activity against human HeLA cells assessed as inhibition of cell growth; format: functional
HL-60 [8] = experiment: Potency index, ratio of test compound IC50 to dihydroartemisinin IC50 for antiproliferative activity against human HL-60 cells assessed as reduction in cell viability measured after 72 hrs; format: functional
MCF7 [9] = experiment: Antiproliferative activity against doxorubicin resistant human MCF7 cells; format: functional, cell-based
P388 = experiment: Potency index, ratio of test compound IC50 to dihydroartemisinin IC50 for antiproliferative activity against mouse P388 cells assessed as reduction in cell viability measured after 72 hrs; format: functional
HL-60 [10] = experiment: Antiproliferative activity against human HL-60 cells assessed as reduction in cell viability measured after 72 hrs; format: functional, cell-based; conditions: HL-60, 72 h
[11] = Antiproliferative activity against mouse P388 cells assessed as reduction in cell viability measured after 72 hrs; format: functional, cell-based; conditions: 72 h
P388/ADR [12] = experiment: Potency index, ratio of test compound IC50 to dihydroartemisinin IC50 for antiproliferative activity against mouse P388/ADR cells assessed as reduction in cell viability measured after 72 hrs; format: functional
P388/ADR [13] = experiment: Antiproliferative activity against mouse P388/ADR cells assessed as reduction in cell viability measured after 72 hrs; format: functional, cell-based; conditions: 72 h
P388/ADR [14] = experiment: Potency index, ratio of doxorubicin IC50 to test compound IC50 for antiproliferative activity against mouse P388/ADR cells assessed as reduction in cell viability measured after 72 hrs; format: functional
leukaemia cell line = experiment: Potency index, ratio of artemisinin IC50 to test compound IC50 for antiproliferative activity against human leukaemia cell line assessed as inhibition of cell growth; format: functional
[15] = Antiproliferative activity against human Renal carcinoma cell; format: functional, cell-based
Ovarian cancer cell line [16] = experiment: Antiproliferative activity against human Ovarian cancer cell line; format: functional, cell-based
Prostatic carcinoma cell = experiment: Potency index, ratio of artemisinin IC50 to test compound IC50 for antiproliferative activity against human Prostatic carcinoma cell assessed as inhibition of cell growth; format: functional
Breast carcinoma cell [17] = experiment: Potency index, ratio of artemisinin IC50 to test compound IC50 for antiproliferative activity against human Breast carcinoma cell assessed as inhibition of cell growth; format: functional
Breast carcinoma cell [18] = experiment: Antiproliferative activity against human Breast cancer cell line; format: functional, cell-based
[19] = Antiproliferative activity against human leukaemia cell line; format: functional, cell-based
Ovarian cancer cell line [20] = experiment: Potency index, ratio of artemisinin IC50 to test compound IC50 for antiproliferative activity against human Ovarian cancer cell line assessed as inhibition of cell growth; format: functional
Melanoma cell line [21] = experiment: Antiproliferative activity against human Melanoma cell line; format: functional, cell-based
Melanoma cell line [22] = experiment: Potency index, ratio of artemisinin IC50 to test compound IC50 for antiproliferative activity against human Melanoma cell line assessed as inhibition of cell growth; format: functional
MDA-MB-231 [23] = experiment: Antiproliferative activity against human MDA-MB-231 cells; format: functional, cell-based; conditions: Homo sapiens, MDA-MB-231
HEp-2 = experiment: Antiproliferative activity against human HEp-2 cells assessed as inhibition of cell growth at 50 uM relative to control; format: functional; design: scale not given: the % may be the effect or the level left
SMMC-7721 = experiment: Antiproliferative activity against human SMMC-7721 cells; format: functional, cell-based
PC-3 = experiment: Antiproliferative activity against human PC-3 cells; format: functional, cell-based
A-431 = experiment: Antiproliferative activity against human A-431 cells; format: functional, cell-based
MCF7 [24] = experiment: Anticancer activity against human MCF7 cells; format: functional, cell-based
HEK293 = experiment: Antiproliferative activity against human HEK293 cells; format: functional, cell-based
MDA-MB-231 [25] = experiment: Antiproliferative activity against human MDA-MB-231 cells assessed as reduction in cell viability; format: functional, cell-based
A549 [26] = experiment: Antiproliferative activity against human A549 cells assessed as cell growth inhibition by MTT assay; format: functional, cell-based
THP-1 = experiment: Antiproliferative activity against human THP-1 cells assessed as inhibition of cell growth at 50 uM relative to control; format: functional; design: scale not given: the % may be the effect or the level left
HCT-15 [27] = experiment: Antiproliferative activity against human HCT-15 cells assessed as cell growth inhibition by MTT assay; format: functional, cell-based
A549 [28] = experiment: Antiproliferative activity against human A549 cells assessed as inhibition of cell growth at 50 uM relative to control; format: functional; design: scale not given: the % may be the effect or the level left
COLO 205 = experiment: Antiproliferative activity against human COLO 205 cells; format: functional, cell-based
[29] = Cytotoxicity against human HCEC cells; format: toxicity, cell-based
K562 = experiment: Antiproliferative activity against human K562 cells; format: functional, cell-based
A549 [30] = experiment: Antiproliferative activity against human A549 cells; format: functional, cell-based
HCT-15 [31] = experiment: Antiproliferative activity against human HCT-15 cells assessed as inhibition of cell growth at 50 uM relative to control; format: functional; design: scale not given: the % may be the effect or the level left
HepG2 = experiment: Antiproliferative activity against human HepG2 cells assessed as cell growth inhibition by MTT assay; format: functional, cell-based

C[C@H]1[C@@H](CC(C[C@H]2O[C@@H]3O[C@@]4(C)CC[C@H]5[C@H](C)CC[C@@H]([C@H]2C)[C@@]35OO4)CS(=O)(=O)c2ccc(COC(=O)N(C)C)cc2)O[C@@H]2O[C@@]3(C)CC[C@H]4[C@H](C)CC[C@@H]1[C@@]24OO3 (stereo not given in full)
IC50 [1]: 70 nM | IC50 (HCT-116 [2]): 70 nM | IC50 [3]: 4900 nM | Ratio IC50 [4]: 12.6 | IC50 (HeLa [5]): 70 nM | Ratio IC50 (HCT-116 [6]): 12.6 | Ratio IC50 (HeLa [7]): 12.6

C[C@H]1[C@@H](Oc2ccc(Cn3ccnn3)cc2)O[C@@H]2O[C@@]3(C)CC[C@H]4[C@H](C)CC[C@@H]1[C@@]24OO3
Ratio IC50 (HL-60 [8]): 4.6 | IC50 (MCF7 [9]): 47 nM | Ratio IC50 (P388): 4.6 | IC50 (HL-60 [10]): 65 nM | IC50 [11]: 47 nM | Ratio IC50 (P388/ADR [12]): 4.6 | IC50 (P388/ADR [13]): 2890 nM

C[C@H]1[C@@H](CC(C[C@H]2O[C@@H]3O[C@@]4(C)CC[C@H]5[C@H](C)CC[C@@H]([C@H]2C)[C@@]35OO4)CS(=O)(=O)c2ccc(CO)cc2)O[C@@H]2O[C@@]3(C)CC[C@H]4[C@H](C)CC[C@@H]1[C@@]24OO3 (stereo not given in full)
IC50 [1]: 70 nM | IC50 (HCT-116 [2]): 70 nM | IC50 [3]: 57500 nM | Ratio IC50 [4]: 12.6 | IC50 (HeLa [5]): 70 nM | Ratio IC50 (HCT-116 [6]): 12.6 | Ratio IC50 (HeLa [7]): 12.6

C[C@H]1[C@@H](OC/C(=N\O)O[C@H]2O[C@@H]3O[C@@]4(C)CC[C@H]5[C@H](C)CC[C@@H]([C@H]2C)[C@@]35OO4)O[C@@H]2O[C@@]3(C)CC[C@H]4[C@H](C)CC[C@@H]1[C@@]24OO3
Ratio IC50 (P388/ADR [14]): >=4 | Ratio IC50 (leukaemia cell line): >=4 | IC50 [15]: 55 nM | IC50 (Ovarian cancer cell line [16]): 55 nM | Ratio IC50 (Prostatic carcinoma cell): >=4 | Ratio IC50 (Breast carcinoma cell [17]): >=4 | IC50 (Breast carcinoma cell [18]): 55 nM | IC50 [19]: 55 nM | Ratio IC50 (Ovarian cancer cell line [20]): >=4 | IC50 (Melanoma cell line [21]): 55 nM | Ratio IC50 (Melanoma cell line [22]): >=4

C[C@@H]1CC[C@H]2[C@@H](C)C(=O)O[C@@H]3O[C@@]4(C)CC[C@@H]1[C@]32OO4 [ARTEMISININ]
IC50 (MDA-MB-231 [23]): 39000 nM | Activity (HEp-2): 21% | IC50 (SMMC-7721): 440 nM | IC50 (PC-3): 39000 nM | IC50 (A-431): 39000 nM | IC50 (MCF7 [24]): > 50000 nM | IC50 [15]: ≥ 40000 nM | IC50 (HEK293): 39000 nM | IC50 (Ovarian cancer cell line [16]): ≥ 40000 nM | IC50 (MDA-MB-231 [25]): > 50000 nM | IC50 (A549 [26]): > 300000 nM | Activity (THP-1): 21% | IC50 (HCT-15 [27]): > 300000 nM | Activity (A549 [28]): 21% | IC50 (Breast carcinoma cell [18]): ≥ 40000 nM | IC50 (COLO 205): 39000 nM | IC50 [29]: > 50000 nM | IC50 (K562): 39000 nM | IC50 (A549 [30]): > 50000 nM | IC50 [19]: ≥ 40000 nM | Activity (HCT-15 [31]): 21% | IC50 (Melanoma cell line [21]): ≥ 40000 nM | IC50 (HepG2): > 300000 nM
